{"source": "patent US20100273808A1", "about": "(Millennium Pharmaceticals, Inc., priority 2008, published 2010)", "assay": "Equilibrium aqueous solubility under pH controlled conditions", "format": "physicochemical", "note": "Like-named read-outs stand apart in the source and are kept apart here."}
{"smiles": "COc1cc2c(N3CCN(C(=O)Nc4ccc(OC(C)C)cc4)CC3)ncnc2cc1OCCCN1CCCCC1.C[C@H](O)C(=O)O", "note": "[Form 1, 4-[6-methoxy-7-(3-piperidin-1-yl-propoxy)quinazolin-4-yl]piperazine-1-carboxylic acid(4-isopropoxyphenyl)-amide (L)-lactate Form 1]", "values": [{"measurement": "solubility", "setting": "aqueous buffer, thermodynamic from solid, in water, physiologically relevant pH's, read-out: solubility", "value": "> 450", "unit": "mg/mL"}, {"measurement": "solubility", "setting": "pH 3.51, aqueous buffer, thermodynamic from solid, equilibrium aqueous, pH 3.51, read-out: Solubility", "value": 496, "unit": "mg/mL"}, {"measurement": "solubility", "setting": "pH 3.97, aqueous buffer, thermodynamic from solid, equilibrium aqueous, pH 3.97, read-out: Solubility", "value": 465, "unit": "mg/mL"}, {"measurement": "solubility", "setting": "pH 4.23, aqueous buffer, thermodynamic from solid, equilibrium aqueous, pH 4.23, read-out: Solubility", "value": 511, "unit": "mg/mL"}, {"measurement": "solubility", "setting": "pH 5.96, aqueous buffer, thermodynamic from solid, equilibrium aqueous, pH 5.96, read-out: Solubility", "value": 458, "unit": "mg/mL"}]}
{"smiles": "COc1cc2c(N3CCN(C(=O)Nc4ccc(OC(C)C)cc4)CC3)ncnc2cc1OCCCN1CCCCC1.C[C@H](O)C(=O)O", "note": "[Form 4, 4-[6-methoxy-7-(3-piperidin-1-yl-propoxy)quinazolin-4-yl]piperazine-1-carboxylic acid(4-isopropoxyphenyl)-amide (L)-lactate Form 4]", "values": [{"measurement": "solubility", "setting": "in water, physiologically relevant pH's", "value": "greater than 325 mg/mL"}, {"measurement": "solubility", "setting": "pH 3.65, aqueous buffer, thermodynamic from solid, equilibrium aqueous, pH 3.65, read-out: Solubility", "value": 359, "unit": "mg/mL"}, {"measurement": "solubility", "setting": "pH 5.85, aqueous buffer, thermodynamic from solid, equilibrium aqueous, pH 5.85, read-out: Solubility", "value": 412, "unit": "mg/mL"}, {"measurement": "solubility", "setting": "pH 6.03, aqueous buffer, thermodynamic from solid, equilibrium aqueous, pH 6.03, read-out: Solubility", "value": 327, "unit": "mg/mL"}]}
{"smiles": "COc1cc2c(N3CCN(C(=O)Nc4ccc(OC(C)C)cc4)CC3)ncnc2cc1OCCCN1CCCCC1", "note": "[compound of formula (II), 4-[6-methoxy-7-(3-piperidin-1-yl-propoxy)quinazolin-4-yl]piperazine-1-carboxylic acid(4-isopropoxyphenyl)-amide]", "values": [{"measurement": "solubility", "setting": "in water, pH 6.95, read-out: solubility", "value": "~1.24", "unit": "mg/mL"}]}
